{"source": "patent US20100047371A1", "about": "“COMPOSITIONS AND METHODS FOR ORAL CANCER CHEMOPREVENTION USING BERRY PREPARATIONS AND EXTRACTS” (priority 2006, published 2010)", "key": {"[1]": {"experiment": "Human pharmacokinetic study: anthocyanins in saliva and peripheral blood after topical gel application", "type": "in vivo", "settings": "for Anthocyanin concentration in saliva / Anthocyanin concentration in peripheral blood: 1.0 g 5% FBR Gel, pH 6.5 topical to floor of mouth; for Anthocyanin concentration in saliva: saliva collected 2-5 min after application; for Anthocyanin concentration in peripheral blood: blood drawn five minutes after application", "procedure": "Anthocyanin content in sera, saliva, and tissue explants was evaluated by an HPLC-MS assay. The respective samples (sera, saliva or tissue homogenates) were dissolved in 90% solvent A (water plus 1% formic acid) and 10% solvent B (acetonitrile plus 1% formic acid) and then separated on a Symmetry C18 reversed-phase column and analyzed using a Waters 2695 gradient HPLC separation module equipped with a 996 photodiode-array (PDA) UV/visible absorbance detector (Milford, Mass.). The solvent system consisted of a step gradient from 90% A to 50% B over 15 minutes, and the absorption spectra were recorded from 200-800 nm with the inline PDA detector. Mass spectrometry was conducted on a quadrupole ion tunnel mass spectrometer equipped with a Z-spray ESI source. Explant protein levels were determined by the Lowry method, using bovine γ-globulin as the standard protein [Lippman et al., 1993].\nNext, evaluation of anthocyanin uptake into human oral mucosa from FBR gels prepared as described in Example 1 was undertaken. For in-vivo studies, participation of human subjects was conducted in accordance with an IRB approved protocol. […] For the phamacokinetic analyses, nine consenting adult volunteers dried the anterior floor of their mouth, placed 1.0 g of 5% berry gel (pH 6.5), and massaged the gel in place for 30 seconds to facilitate uptake. Two minutes after gel application saliva was collected for the next three minutes. Peripheral blood was drawn five minutes after gel application. Following clotting, sera samples were collected, and both the sera and saliva samples were stored at −80° C. until LC-MS analysis as described below.\nAll nine participants had detectable anthocyanin levels of three anthocyanins (cyanidin 3-rutinoside, cyanidin 3-xylosylrutinoside, cyanidin 3-glucoside) in either their saliva or blood, and 4 donors had detectable levels of two anthocyanins (cyanidin 3-rutinoside and cyanidin 3-xylosylrutinoside) in their peripheral blood. Saliva from eight of the nine donors contained detectable levels of either two (cyanidin 3-rutinoside and cyanidin 3-xylosylrutinoside-4 donors) or three anthocyanins (4 donors)."}, "[2]": {"tested_on": "Human Oral Mucosa Explant Tissues", "experiment": "Effect of final gel pH on anthocyanin uptake into human oral mucosa explant tissues", "type": "in vitro ADME", "settings": "10% w/w FBR gel", "procedure": "Anthocyanin content in sera, saliva, and tissue explants was evaluated by an HPLC-MS assay. The respective samples (sera, saliva or tissue homogenates) were dissolved in 90% solvent A (water plus 1% formic acid) and 10% solvent B (acetonitrile plus 1% formic acid) and then separated on a Symmetry C18 reversed-phase column and analyzed using a Waters 2695 gradient HPLC separation module equipped with a 996 photodiode-array (PDA) UV/visible absorbance detector (Milford, Mass.). The solvent system consisted of a step gradient from 90% A to 50% B over 15 minutes, and the absorption spectra were recorded from 200-800 nm with the inline PDA detector. Mass spectrometry was conducted on a quadrupole ion tunnel mass spectrometer equipped with a Z-spray ESI source. Explant protein levels were determined by the Lowry method, using bovine γ-globulin as the standard protein [Lippman et al., 1993]. Tissue explants, specifically human oral mucosal explants, were used to determine the in vitro effects of FBR content and pH on anthocyanin uptake. Human oral tissues for the tissue explant studies were obtained from consenting volunteers who were undergoing elective oral surgery procedures. To confirm “no pathologic diagnosis”, a portion of each of these tissues was submitted for light microscopic evaluation. […] Tissues for explant experiments were immediately placed in an artificial saliva transport medium, which also served as the incubation medium for the gel absorption studies. The composition of the artificial saliva used for tissue transport and incubation was (final concentrations): sodium carboxymethylcellulose (0.5%), sorbitol (165 mM), NaCl (14 mM), KCl (16 mM), calcium chloride dehydrate (1.0 mM), MgCl2 (0.63 mM), Trizma hydrochloride (2.0 mM). Tissues from eight donors were used for preliminary studies to compare the penetration of anthocyanins from the 5% berry gel and the 10% FBR gel, both at a final pH of 6.5. In order to account for heterogeneity among human donors, tissue samples were hemisected. One tissue portion treated with 5% and the other with 10% FBR gels. One gram of gel (containing either 5% or 10% w/w FBR) was placed on the epithelial surface of the explant, followed by gently rubbing of the site for 30 seconds to facilitate uptake. Explants were then placed into artificial saliva, incubated for 30 minutes (37° C., 5% CO2), and then frozen at −80° C. until HPLC-mass spectroscopy analyses as previously reported [Rodrigo et al., in press]. Tissue preparation for HPLC analyses consisted of homogenization of the entire oral mucosal specimen, removal of an aliquot for sample protein level determination, followed by the addition of collagenase type II (0.1 mg/mL, GIBCO, Grand Island, N.Y.) and 1% formic acid. Samples were then placed on a Sep Pack (Millipore, Billerica, Mass.), eluted with methanol, and dried under argon gas. Additional oral mucosal explant studies were conducted to compare the effect of FBR gel pH on absorption into oral mucosal explants. Tissues from eleven donors were used for these studies, and handling was as described above with the exception that all gels contained 10% w/w FBR and were formulated at a final pH of 3.5 or 6.5. […] Large differences (up to 15-fold) in detectable anthocyanin levels were found in the gel treated donor tissues; findings that likely reflect the extensive heterogeneity within human tissues that affects tissue penetrative abilities."}, "[3]": {"settings": "average of eleven explant samples"}}, "data": [{"compound": "C[C@@H]1O[C@@H](OC[C@H]2O[C@@H](Oc3cc4c(O)cc(O)cc4[o+]c3-c3ccc(O)c(O)c3)[C@H](O)[C@@H](O)[C@@H]2O)[C@H](O)[C@H](O)[C@H]1O", "note": "[cyanidin 3-rutinoside]", "values": [{"measurement": "number of donors with detectable levels in peripheral blood", "setting": "[1]; of nine participants, 5% berry gel (pH 6.5), five minutes after application", "result": 4, "unit": "donors"}, {"measurement": "Anthocyanin concentration in saliva", "setting": "[1]; patient 101", "result": 3.5, "unit": "pmol/mL"}, {"measurement": "Anthocyanin concentration in saliva", "setting": "[1]; patient 102", "result": 1.7, "unit": "pmol/mL"}, {"measurement": "Anthocyanin concentration in peripheral blood", "setting": "[1]; patient 103", "result": 2.3, "unit": "pmol/mL"}, {"measurement": "Anthocyanin concentration in saliva", "setting": "[1]; patient 104", "result": 4.6, "unit": "pmol/mL"}, {"measurement": "Anthocyanin concentration in peripheral blood", "setting": "[1]; patient 105", "result": 7.4, "unit": "pmol/mL"}, {"measurement": "Anthocyanin concentration in saliva", "setting": "[1]; patient 105", "result": 8.3, "unit": "pmol/mL"}, {"measurement": "Anthocyanin concentration in peripheral blood", "setting": "[1]; patient 106", "result": 5.6, "unit": "pmol/mL"}, {"measurement": "Anthocyanin concentration in saliva", "setting": "[1]; patient 106", "result": 6.1, "unit": "pmol/mL"}, {"measurement": "Anthocyanin concentration in peripheral blood", "setting": "[1]; patient 107", "result": 5.8, "unit": "pmol/mL"}, {"measurement": "Anthocyanin concentration in saliva", "setting": "[1]; patient 107", "result": 9.3, "unit": "pmol/mL"}, {"measurement": "Anthocyanin concentration in saliva", "setting": "[1]; patient 108", "result": 4.2, "unit": "pmol/mL"}, {"measurement": "Anthocyanin concentration in saliva", "setting": "[1]; patient 109", "result": 2.2, "unit": "pmol/mL"}, {"measurement": "Anthocyanin uptake, Gel pH 3.5, Avg. ± SEM", "setting": "[2]; [3]", "result": 31.9, "unit": "pmol per mg tissue"}, {"measurement": "Anthocyanin uptake, Gel pH 6.5, Avg. ± SEM", "setting": "[2]; [3]", "result": 113.0, "unit": "pmol per mg tissue"}, {"measurement": "% change 3.5 to 6.5, Avg. ± SEM", "setting": "[2]; average of explant samples", "result": 956.3, "unit": "%"}, {"measurement": "% change 3.5 to 6.5", "setting": "[2]; explant sample 001", "result": 474.1, "unit": "%"}, {"measurement": "Anthocyanin uptake, Gel pH 3.5", "setting": "[2]; explant sample 001", "result": 116.4, "unit": "pmol per mg tissue"}, {"measurement": "Anthocyanin uptake, Gel pH 6.5", "setting": "[2]; explant sample 001", "result": 668.3, "unit": "pmol per mg tissue"}, {"measurement": "% change 3.5 to 6.5", "setting": "[2]; explant sample 002", "result": 627.2, "unit": "%"}, {"measurement": "Anthocyanin uptake, Gel pH 3.5", "setting": "[2]; explant sample 002", "result": 9.3, "unit": "pmol per mg tissue"}, {"measurement": "Anthocyanin uptake, Gel pH 6.5", "setting": "[2]; explant sample 002", "result": 67.8, "unit": "pmol per mg tissue"}, {"measurement": "% change 3.5 to 6.5", "setting": "[2]; explant sample 003", "result": "−14.8", "unit": "%"}, {"measurement": "Anthocyanin uptake, Gel pH 3.5", "setting": "[2]; explant sample 003", "result": 34.3, "unit": "pmol per mg tissue"}, {"measurement": "Anthocyanin uptake, Gel pH 6.5", "setting": "[2]; explant sample 003", "result": 29.2, "unit": "pmol per mg tissue"}, {"measurement": "% change 3.5 to 6.5", "setting": "[2]; explant sample 004", "result": "−64.4", "unit": "%"}, {"measurement": "Anthocyanin uptake, Gel pH 3.5", "setting": "[2]; explant sample 004", "result": 26.3, "unit": "pmol per mg tissue"}, {"measurement": "Anthocyanin uptake, Gel pH 6.5", "setting": "[2]; explant sample 004", "result": 9.4, "unit": "pmol per mg tissue"}, {"measurement": "% change 3.5 to 6.5", "setting": "[2]; explant sample 005", "result": "−20.0", "unit": "%"}, {"measurement": "Anthocyanin uptake, Gel pH 3.5", "setting": "[2]; explant sample 005", "result": 3.5, "unit": "pmol per mg tissue"}, {"measurement": "Anthocyanin uptake, Gel pH 6.5", "setting": "[2]; explant sample 005", "result": 2.8, "unit": "pmol per mg tissue"}, {"measurement": "% change 3.5 to 6.5", "setting": "[2]; explant sample 006", "result": 362.1, "unit": "%"}, {"measurement": "Anthocyanin uptake, Gel pH 3.5", "setting": "[2]; explant sample 006", "result": 45.7, "unit": "pmol per mg tissue"}, {"measurement": "Anthocyanin uptake, Gel pH 6.5", "setting": "[2]; explant sample 006", "result": 211.1, "unit": "pmol per mg tissue"}, {"measurement": "% change 3.5 to 6.5", "setting": "[2]; explant sample 007", "result": 45.1, "unit": "%"}, {"measurement": "Anthocyanin uptake, Gel pH 3.5", "setting": "[2]; explant sample 007", "result": 5.6, "unit": "pmol per mg tissue"}, {"measurement": "Anthocyanin uptake, Gel pH 6.5", "setting": "[2]; explant sample 007", "result": 8.1, "unit": "pmol per mg tissue"}, {"measurement": "% change 3.5 to 6.5", "setting": "[2]; explant sample 008", "result": 8905.1, "unit": "%"}, {"measurement": "Anthocyanin uptake, Gel pH 3.5", "setting": "[2]; explant sample 008", "result": 0.4, "unit": "pmol per mg tissue"}, {"measurement": "Anthocyanin uptake, Gel pH 6.5", "setting": "[2]; explant sample 008", "result": 35.1, "unit": "pmol per mg tissue"}, {"measurement": "% change 3.5 to 6.5", "setting": "[2]; explant sample 009", "result": 395.1, "unit": "%"}, {"measurement": "Anthocyanin uptake, Gel pH 3.5", "setting": "[2]; explant sample 009", "result": 43.9, "unit": "pmol per mg tissue"}, {"measurement": "Anthocyanin uptake, Gel pH 6.5", "setting": "[2]; explant sample 009", "result": 207.4, "unit": "pmol per mg tissue"}, {"measurement": "% change 3.5 to 6.5", "setting": "[2]; explant sample 010", "result": "−91.4", "unit": "%"}, {"measurement": "Anthocyanin uptake, Gel pH 3.5", "setting": "[2]; explant sample 010", "result": 37.1, "unit": "pmol per mg tissue"}, {"measurement": "Anthocyanin uptake, Gel pH 6.5", "setting": "[2]; explant sample 010", "result": 3.2, "unit": "pmol per mg tissue"}, {"measurement": "% change 3.5 to 6.5", "setting": "[2]; explant sample 011", "result": "−98.7", "unit": "%"}, {"measurement": "Anthocyanin uptake, Gel pH 3.5", "setting": "[2]; explant sample 011", "result": 28.7, "unit": "pmol per mg tissue"}, {"measurement": "Anthocyanin uptake, Gel pH 6.5", "setting": "[2]; explant sample 011", "result": 0.4, "unit": "pmol per mg tissue"}]}]}
